Each compound was assayed on PMS1 (assay: Mini-Gene Reporter Assay—PMS1 (firefly luciferase mini-gene reporter transiently transfected into HEK293 cells)). Settings: Homo sapiens; at 5 uM; mini-gene firefly luciferase reporter in HEK293 cells; read-out: PMS1 % Effect at 5 uM.
Type: cell-based
Procedure, shortened: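 Luminescence (RLU) read-out of exon inclusion: compound dilutions, tested in duplicate, act on transiently transfected HEK293 cells carrying a firefly luciferase reporter fused downstream of the PMS1 skipped-exon region. Potency derived by Levenberg-Marquardt curve fitting, with percent effect at 5 μM.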
For CCOc1cc2nn(C)cc2cc1C(=O)Nc1cnc(NC2CNCC23CC3)nc1 (stereo not shown) [Compound 397], the activation at 5 µM was < 50%. With CCOc1cc2nn(C)cc2cc1C(=O)Nc1cnc(NCCCC2CCCN2)nc1 (stereo not shown) [Compound 398] the activation at 5 µM was < 50%. With CCOc1cc2nn(C)cc2cc1C(=O)Nc1cnc(NC2CC3NCCOC3C2)nc1 (stereo not shown) [Compound 399] the activation at 5 µM was < 50%. CCOc1cc2nn(C)cc2cc1C(=O)Nc1cnc(NC[C@H]2CC[C@H](CNC)CC2)nc1 [Compound 400] was tested, and the activation at 5 µM was < 50%. For CCOc1cc2nn(C)cc2cc1C(=O)Nc1cnc(NCc2c(C)nn3c2CNCC3)nc1 [Compound 403], the activation at 5 µM was < 50%. In the case of CCOc1cc2nn(C)cc2cc1C(=O)Nc1cnc(NCC2CC3(CCNC3)CO2)nc1 (stereo not shown) [Compound 405], the activation at 5 µM is reported as < 50%. In the case of CCOc1cc2nn(C)cc2cc1C(=O)Nc1cnc(NCC23CC(N)(C2)C3)nc1 [Compound 406], the activation at 5 µM is reported as < 50%. CCOc1cc2nn(C)cc2cc1C(=O)Nc1cnc(NC2CNCC2(C)C)nc1 (stereo not shown) [Compound 407] was tested, and the activation at 5 µM was < 50%. With CCOc1cc2nn(C)cc2cc1C(=O)Nc1cnc(NCC2CNC(C)(C)C2)nc1 (stereo not shown) [Compound 408] the activation at 5 µM was < 50%. For CCOc1cc2nn(C)cc2cc1C(=O)Nc1cnc(NCc2cnn3c2CNCC3)nc1 [Compound 409], the activation at 5 µM was < 50%. CCOc1cc2nn(C)cc2cc1C(=O)Nc1cnc(N2CCC(N)(CC)CC2)nc1 [Compound 410] was tested, and the activation at 5 µM was > 75%. With CCOc1cc2nn(C)cc2cc1C(=O)Nc1cnc(NCC2CNCCC2(F)F)nc1 (stereo not shown) [Compound 411] the activation at 5 µM was < 50%. CCOc1cc2nn(C)cc2cc1C(=O)Nc1cnc(N2CC(NC)C(C)(C)C2)nc1 (stereo not shown) [Compound 412] was tested, and the activation at 5 µM was < 50%. With CCOc1cc2nn(C)cc2cc1C(=O)Nc1cnc(NCC2CNC(C)C2)nc1 (stereo not shown) [Compound 413] the activation at 5 µM was < 50%. For CCOc1cc2nn(C)cc2cc1C(=O)Nc1cnc(N2CCC(n3ncc4c3CNC4)CC2)nc1 [Compound 414], the activation at 5 µM was < 50%. In the case of CCOc1cc2nn(C)cc2cc1C(=O)Nc1cnc(NC2CCCNC2C)nc1 (stereo not shown) [Compound 415], the activation at 5 µM is reported as < 50%. CCOc1cc2nn(C)cc2cc1C(=O)Nc1cnc(N2CC(N)CC2C)nc1 (stereo not shown) [Compound 416] showed an activation at 5 µM of 50 to 75%. With CCOc1cc2nn(C)cc2cc1C(=O)Nc1cnc(NCCC2CC(F)(F)CN2)nc1 (stereo not shown) [Compound 417] the activation at 5 µM was < 50%. For CCOc1cc2nn(C)cc2cc1C(=O)Nc1cnc(N2CCC(N)(c3cccc(F)c3)C2)nc1 (stereo not shown) [Compound 418], the activation at 5 µM was < 50%. In the case of CCOc1cc2nn(C)cc2cc1C(=O)Nc1cnc(NCC(N)c2ccc(F)cc2)nc1 (stereo not shown) [Compound 419], the activation at 5 µM is reported as < 50%. For CCOc1cc2nn(C)cc2cc1C(=O)Nc1cnc(NCC2(CN)CCC2)nc1 [Compound 421], the activation at 5 µM was < 50%. For CCOc1cc2nn(C)cc2cc1C(=O)Nc1cnc(N2CC(N)C(C)(C)C2)nc1 (stereo not shown) [Compound 422], the activation at 5 µM was < 50%. In the case of CCOc1cc2nn(C)cc2cc1C(=O)Nc1cnc(NCC2NCCc3sccc32)nc1 (stereo not shown) [Compound 423], the activation at 5 µM is reported as < 50%. For CCOc1cc2nn(C)cc2cc1C(=O)Nc1cnc(NC(C)CNC)nc1 (stereo not shown) [Compound 424], the activation at 5 µM was < 50%. With CCOc1cc2nn(C)cc2cc1C(=O)Nc1cnc(NCC[C@@H]2C[C@H](OC)CN2)nc1 [Compound 425] the activation at 5 µM was < 50%. For CCOc1cc2nn(C)cc2cc1C(=O)Nc1cnc(NCC2=CCNCC2)nc1 [Compound 426], the activation at 5 µM was < 50%. For CCOc1cc2nn(C)cc2cc1C(=O)Nc1cnc(N2C[C@@H](F)C[C@H]2CN)nc1 [Compound 427], the activation at 5 µM was < 50%. For CCOc1cc2nn(C)cc2cc1C(=O)Nc1cnc(NCC2CCCCNC2)nc1 (stereo not shown) [Compound 428], the activation at 5 µM was < 50%. CCOc1cc2nn(C)cc2cc1C(=O)Nc1cnc(N2CCC3(CNCCO3)C2)nc1 (stereo not shown) [Compound 429] was tested, and the activation at 5 µM was < 50%. CCOc1cc2nn(C)cc2cc1C(=O)Nc1cnc(NCC2CCNCC2(F)F)nc1 (stereo not shown) [Compound 431] was tested, and the activation at 5 µM was < 50%. In the case of CCOc1cc2nn(C)cc2cc1C(=O)Nc1cnc(N2C[C@H](O)C[C@@H]2CN)nc1 [Compound 433], the activation at 5 µM is reported as < 50%. With CCOc1cc2nn(C)cc2cc1C(=O)Nc1cnc(NCC2CCNCC2C)nc1 (stereo not shown) [Compound 434] the activation at 5 µM was < 50%. With CCOc1cc2nn(C)cc2cc1C(=O)Nc1cnc(N2CCCC(C)(CN)C2)nc1 (stereo not shown) [Compound 435] the activation at 5 µM was < 50%. CCOc1cc2nn(C)cc2cc1C(=O)Nc1cnc(N2CC3(CNCCO3)C2)nc1 [Compound 436] was tested, and the activation at 5 µM was < 50%. For CCOc1cc2nn(C)cc2cc1C(=O)Nc1cnc(N2CCCC2CNC)nc1 (stereo not shown) [Compound 437], the activation at 5 µM was < 50%. With CCOc1cc2nn(C)cc2cc1C(=O)Nc1cnc(N(C)C[C@H]2CCCN2)nc1 [Compound 438] the activation at 5 µM was < 50%. In the case of CCOc1cc2nn(C)cc2cc1C(=O)Nc1cnc(NCC2(C)CCNC2)nc1 (stereo not shown) [Compound 439], the activation at 5 µM is reported as < 50%. For CCOc1cc2nn(C)cc2cc1C(=O)Nc1cnc(N2C[C@@H](F)C[C@H]2CNC)nc1 [Compound 440], the activation at 5 µM was < 50%. With CCOc1cc2nn(C)cc2cc1C(=O)Nc1cnc(N2CCCC3(CCNC3)C2)nc1 (stereo not shown) [Compound 441] the activation at 5 µM was < 50%. For CCOc1cc2nn(C)cc2cc1C(=O)Nc1cnc(N2CCC3(CCCN3)CC2)nc1 [Compound 442], the activation at 5 µM was > 75%. CCOc1cc2nn(C)cc2cc1C(=O)Nc1cnc(NC[C@@H]2CC(F)(F)CN2)nc1 [Compound 443] was tested, and the activation at 5 µM was < 50%. In the case of CCOc1cc2nn(C)cc2cc1C(=O)Nc1cnc(N2CC(N)C3(CC3)C2)nc1 (stereo not shown) [Compound 444], the activation at 5 µM is reported as < 50%. With CCOc1cc2nn(C)cc2cc1C(=O)Nc1cnc(NCc2ccc(CN)cc2F)nc1 [Compound 445] the activation at 5 µM was < 50%. With CCOc1cc2nn(C)cc2cc1C(=O)Nc1cnc(N(C)CC2CCCN2)nc1 (stereo not shown) [Compound 446] the activation at 5 µM was < 50%. CCOc1cc2nn(C)cc2cc1C(=O)Nc1cnc(NCCC2(O)CNC2)nc1 [Compound 447] was tested, and the activation at 5 µM was < 50%. With CCOc1cc2nn(C)cc2cc1C(=O)Nc1cnc(N(C)CCN2CCNCC2)nc1 [Compound 448] the activation at 5 µM was < 50%. In the case of CCOc1cc2nn(C)cc2cc1C(=O)Nc1cnc(N(C)CC2CCNC2)nc1 (stereo not shown) [Compound 449], the activation at 5 µM is reported as < 50%. For CCOc1cc2nn(C)cc2cc1C(=O)Nc1cnc(NC[C@H]2CCCNC2)nc1 [Compound 450], the activation at 5 µM was < 50%. For CCOc1cc2nn(C)cc2cc1C(=O)Nc1cnc(NCc2ccccc2N2CCNCC2)nc1 [Compound 451], the activation at 5 µM was < 50%. For CCOc1cc2nn(C)cc2cc1C(=O)Nc1cnc(N2CCC3(CC2)CNCCO3)nc1 [Compound 452], the activation at 5 µM was < 50%. CCOc1cc2nn(C)cc2cc1C(=O)Nc1cnc(N2CC(C)NCC2C)nc1 (stereo not shown) [Compound 453] was tested, and the activation at 5 µM was 50 to 75%. For CCOc1cc2nn(C)cc2cc1C(=O)Nc1cnc(N2CCC3(CCNCC3)C2)nc1 [Compound 454], the activation at 5 µM was < 50%. CCOc1cc2nn(C)cc2cc1C(=O)Nc1cnc(N2CCCC(CCN)C2)nc1 (stereo not shown) [Compound 455] was tested, and the activation at 5 µM was < 50%. CCOc1cc2nn(C)cc2cc1C(=O)Nc1cnc(N2CCOC3(CCNCC3)C2)nc1 [Compound 459] was tested, and the activation at 5 µM was < 50%. For CCOc1cc2nn(C)cc2cc1C(=O)Nc1cnc(NCCC2CCCCN2)nc1 (stereo not shown) [Compound 460], the activation at 5 µM was < 50%. CCOc1cc2nn(C)cc2cc1C(=O)Nc1cnc(NCCC2CCCNC2)nc1 (stereo not shown) [Compound 462] was tested, and the activation at 5 µM was < 50%. In the case of CCOc1cc2nn(C)cc2cc1C(=O)Nc1cnc(N2CCC(NC)C2)nc1 (stereo not shown) [Compound 463], the activation at 5 µM is reported as > 75%. CCOc1cc2nn(C)cc2cc1C(=O)Nc1cnc(N2C[C@H]3CNC[C@H]3C2)nc1 [Compound 464] showed an activation at 5 µM of 50 to 75%. In the case of CCOc1cc2nn(C)cc2cc1C(=O)Nc1cnc(NC[C@@H]2CCNC2)nc1 [Compound 465], the activation at 5 µM is reported as < 50%. With CCOc1cc2nn(C)cc2cc1C(=O)Nc1cnc(N2CCCC(NC)C2)nc1 (stereo not shown) [Compound 466] the activation at 5 µM was < 50%. For CCOc1cc2nn(C)cc2cc1C(=O)Nc1cnc(N2C[C@@H]3C[C@H]2CN3)nc1 [Compound 467], the activation at 5 µM was < 50%. In the case of CCOc1cc2nn(C)cc2cc1C(=O)Nc1cnc(NCC2CNC2)nc1 [Compound 468], the activation at 5 µM is reported as < 50%. With CCOc1cc2nn(C)cc2cc1C(=O)Nc1cnc(NCC2CCCCN2)nc1 (stereo not shown) [Compound 469] the activation at 5 µM was < 50%. With CCOc1cc2nn(C)cc2cc1C(=O)Nc1cnc(NC[C@@H]2CCCN2)nc1 [Compound 470] the activation at 5 µM was < 50%. CCOc1cc2nn(C)cc2cc1C(=O)Nc1cnc(NCCNC)nc1 [Compound 472] was tested, and the activation at 5 µM was < 50%. For CCOc1cc2nn(C)cc2cc1C(=O)Nc1cnc(N2CCC(NC)CC2)nc1 [Compound 473], the activation at 5 µM was < 50%. In the case of CCOc1cc2nn(C)cc2cc1C(=O)Nc1cnc(NC[C@H]2CCCN2)nc1 [Compound 475], the activation at 5 µM is reported as < 50%. Work on CCOc1cc2nn(C)cc2cc1C(=O)Nc1cnc(N2CCNCC2)nc1 [Compound 477] yielded an activation at 5 µM of 50 to 75%. CCOc1cc2nn(C)cc2cc1C(=O)Nc1cnc(N(C)C2CCNCC2)nc1 [Compound 478] gave an activation at 5 µM of 50 to 75%. For CCOc1cc2nn(C)cc2cc1C(=O)Nc1cnc(N2CC(N)C2)nc1 [Compound 479], the activation at 5 µM was < 50%. With CCOc1cc2nn(C)cc2cc1C(=O)Nc1cnc(N2CCN[C@@H](C)C2)nc1 [Compound 480] the activation at 5 µM was > 75%. With CCOc1cc2nn(C)cc2cc1C(=O)Nc1cnc(N2CCC(N)CC2)nc1 [Compound 481] the activation at 5 µM was < 50%. CCOc1cc2nn(C)cc2cc1C(=O)Nc1cnc(NCC2CCCNC2)nc1 (stereo not shown) [Compound 483] was tested, and the activation at 5 µM was < 50%. In the case of CCOc1cc2nn(C)cc2cc1C(=O)Nc1cnc(N(C)CCNC)nc1 [Compound 484], the activation at 5 µM is reported as < 50%. With CCOc1cc2nn(C)cc2cc1C(=O)Nc1cnc(N2CCCNCC2)nc1 [Compound 485] the activation at 5 µM was < 50%. For CCOc1cc2nn(C)cc2cc1C(=O)Nc1cnc(N2CCNC(C)C2)nc1 (stereo not shown) [Compound 487], the activation at 5 µM was > 75%. For CCOc1cn2nc(C)cc2cc1C(=O)Nc1cnc(NCC2(F)CNCCOC2)cn1 (stereo not shown) [Compound 489], the activation at 5 µM was < 50%. Compound CCOc1cn2nc(C)cc2cc1C(=O)Nc1cnc(N2CCNC(CC(F)(F)F)C2)cn1 (stereo not shown) [Compound 490] has an activation at 5 µM of 50 to 75%. For CCOc1cn2nc(C)cc2cc1C(=O)Nc1cnc(N2CC3CCC2C2CNCC32)cn1 (stereo not shown) [Compound 492], the activation at 5 µM was 50 to 75%.
